Experimental data as given in patent publication EP2241565A1, “Aurora kinase inhibitors compounds” (Universität Leipzig, priority 2009, dated 2010).
“Also recorded” adds a separate entry of the source.

What was measured:
Aurora A = target: T1, Aurora A (Homo sapiens, UniProt O14965); experiment: In vitro Aurora A kinase assay (Invitrogen Z'-lyte kinase assay kit, Ser/Thr 1 peptide); type: biochemical; settings: for IC50: 10 µM ATP; for selectivity for Aurora A against other kinases: versus Aurora B and receptor-tyrosine kinases
T1 construct: made in house
T1 sequence (O14965 1-403): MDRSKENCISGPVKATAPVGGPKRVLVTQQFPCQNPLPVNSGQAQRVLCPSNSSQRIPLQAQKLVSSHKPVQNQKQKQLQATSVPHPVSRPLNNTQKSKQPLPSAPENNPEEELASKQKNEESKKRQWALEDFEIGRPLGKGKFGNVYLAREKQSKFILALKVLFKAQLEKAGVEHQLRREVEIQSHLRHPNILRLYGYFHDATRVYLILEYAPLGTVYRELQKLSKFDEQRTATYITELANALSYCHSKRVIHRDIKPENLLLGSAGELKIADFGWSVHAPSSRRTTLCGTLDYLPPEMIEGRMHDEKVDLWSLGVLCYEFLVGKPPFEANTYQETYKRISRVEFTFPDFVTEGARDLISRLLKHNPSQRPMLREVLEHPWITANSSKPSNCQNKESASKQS
Procedure: The IC50 for the different compounds was determined with Invitrogen Z'-Iyte kinase assay kit Ser/Thr 1 peptide PV3174 following the manufacturer's instructions. […] This amount was then used in subsequent assay steps.
Compounds were prepared in 384-well plates (Greiner 384-well PP 781280) at a highest concentration of 400 µM (in 4% DMSO) and then serially diluted in 2-fold steps by hand, keeping the DMSO percentage constant. 1.25 µl of compound solution was subsequently transferred 1:1 to a 384-well assay plate (Greiner 384-well ProxiPlate Plus F 6008260) for screening at a highest concentration in the final assay of 100 µM (in 1% DMSO).
In the first step, 2.5 µl of a solution containing 8 nM Aurora A (batch S74, prepared in-house at EMBL) or 40 nM Aurora B (Invitrogen PV3970) and 4 µM Ser/Thr peptide 1 (Invitrogen PV3174) was added to each well, followed by 1.25 µl of the respective ATP solution (40 µM for Aurora A, 256 µM for Aurora B). The final 5 µl reaction volume consisted of 4 nM Aurora A or 20 nM Aurora B, 2 µM Ser/Thr 1 peptide, 50 mM HEPES pH 7.5, 0.01 % BRIJ-35, 10 mM MgCl2, and 1 mM EGTA, in addition to 10 µM or 64 µM ATP (for Aurora A and Aurora B, respectively). […] The plates were then spun down at 1000 rpm for 1 min, followed by incubation at rt for 1 h. In the second step, 2.5 µl of Development solution (Development A reagent diluted 1:2048 in development buffer) was added to each well, followed again by centrifugation at 1000 rpm for 1 min and subsequent incubation at rt for 1 h. In the final step, the reaction in each well was stopped by the addition of 2.5 µl Stop reagent, followed by a brief centrifugation step and immediate readout (PerkinElmer EnVision HTS; ex. 405 nm, coumarin em. 450 nm, fluorescein em. 535 nm).
Percentage phosphorylation was calculated using 0% and 100% phosphorylation controls. The former wells contained 1.25 µl DMSO (4%), 1.25 µl buffer (as above), and 2.5 µl of a 4 µM Ser/Thr 1 peptide solution (without kinase), while in the latter the peptide solution was replaced by a 4 µM solution of a supplied phosphopeptide. The action of the development reagent was assessed using protease controls (standard wells with and without development solution added in step two).
The [coumarin emission/fluorescein emission] ratio was used together with the min. and max. signals at the two wavelengths to yield percentage phosphorylation, from which inhibition was derived (according to manufacturer's instructions). Calculated inhibition values were then fitted to 11-point variable slope sigmoidal dose-response curves using GraphPad Prism software, yielding the compound IC50s.

FGFR = experiment: RTK-Assay (ELISA, chemiluminescence); type: biochemical
Procedure: To determine the IC50 of receptor-tyrosine-kinase an assay based on the ELISA-principle using kinases from Biomol (N-terminally fused to GST), POD-coupled antibody from Calbiochem (PY20) and BM chemiluminescence ELISA substrate from Roche was followed.
In short, a white 96 wells microplate was incubated overnight with 100 µl/well of the substrate solution (poly-Glu-Tyr diluted with PBS to 100 µg/ml) at 4 °C. The solution was removed and the plate was washed twice for 2 min with PBS-T. Afterwards the kinase solution (50 µl/well)( KDR (VEGFR2), 5 ng; Flt4 (VEGFR3), 20 ng; EGFR, 5 ng; IGFR, 15 ng; FGFR, 10 ng and Tie2, 20 ng) and the inhibitor solution (25 µl/well) were added to each well. To perform positive and negative control, 5% aqueous DMSO (25 µl/well) were used instead of inhibitor solution. Addition of ATP solution (25 µl/well) started the reaction, whereas 40 mM MnCl2 solution (25 µl/well) was added to the negative control instead of ATP. After incubation under mild shaking conditions for 30 min at rt the plate was washed with PBS-T (3 x 2 min) and subsequently incubated with antibody solution (anti-Phosphotyrosine-antibody (POD-coupled) diluted 1:10.000 in PBS-T + 0,2% (m/v) BSA)(100 µl/well) for 1 h again while shaking. In the end the plate was washed with PBS-T (3x5 min) and provided with the chemiluminescence substrate (50 µl/well). After 3 min the occurring luminescence was measured using a luminometer. […] For determination of IC50 values, the relative luminescence units per second (RLU/s) were blotted against the inhibitor concentrations. In doing so each concentration measurement was done triplicate and at least 5 different inhibitor concentrations were used to determine IC50 value.
This assay is based on the ELISA-principle using kinases from Biomol (N-terminally fused to GST), POD-coupled antibody from Calbiochem (PY20) and BM chemiluminescence ELISA substrate from Roche. […]
For determination of IC50 values, the relative luminescence units per second (RLU/s) were blotted against the inhibitor concentrations. […]

hTERT-RPE1 cells = experiment: Cilia disassembly assay; type: cell-based; settings: pretreatment 40 µM, serum stimulation after 48 h starvation
Procedure: Cilia assembly and disassembly assays were performed as described in Pugacheva et al., Cell 2007, 129, 1351-1363. […] For analysis of cilia disassembly, cilia were assembled by 48 h starvation in Opti-MEM, and disassembled by incubation in DMEM-10% serum. Cells were fixed after 2 and 4 h. […] To visualize the centrosomes and the cilia, fixed cells were immunostained with anti-γ-tubulin (Sigma GTU88) and anti-acetylated-tubulin (Sigma), and DNA was stained with Hoechst.

SMILES | IC50 (Aurora A) [nM] | selectivity for Aurora A against other kinases (Aurora A) | IC50 (FGFR) [µM] | cilia disassembly (hTERT-RPE1 cells)
CC(C)Nc1nc(-c2ccco2)nc2ccc(/C=C/C(C)(C)O)cc12 [Compound (A), (E)-4-(2-(Furan-2-yl)-4-(isopropylamino)quinazolin-6-yl)-2-methylbut-3-en-2-ol] | 1930 | selective inhibition of Aurora A | > 100 | –
CC(C)Nc1nc(-c2ccco2)nc2ccc(C#CCO)cc12 [Compound (C), 3-(2-(Furan-2-yl)-4-(isoiproipylamino)quinazolin-6-yl)prop-2-yn-l-ol] | 2750 | selective inhibition of Aurora A | > 100 | strongly inhibited; also recorded: impaired
